The text below walks through data of PubChem BioAssay (NCI).

Usually GI50 stands for the concentration giving 50% growth inhibition. The term TGI denotes the concentration at which net growth stops. Low values mean more potent growth arrest, high ones less potent growth arrest.

What all share (assay): DTP human tumour cell line panel, 48 h
Assay [1] deals with SK-MEL-28 melanoma.
Assay [2] deals with SK-OV-3 ovarian.
Assay [3] concerns TK-10 renal.
In assay [4] the test system is UACC-257 melanoma.
For assay [5], the system named is SW-620 colon.
The test system of assay [6] is NCI-H522 lung.
Assay [7] concerns HOP-62 NSCLC.
Assay [8] deals with U251 CNS.
Assay [9] has as its system SF-539 CNS.
In assay [10] the test system is SNB-19 CNS.

Molecules are shown by their SMILES.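 Each compound was tested at five concentrations against cells in 96-well plates for 48 hours. At the GI50, growth is halved. TGI: total growth inhibition.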

`CCCCCCCCCCCCCCCc1ccc(C(=O)C[n+]2ccccc2)cc1`: the GI50 in [1] was 1.21 µM; in assay [2], 1.71 µM; in assay [3] it was 1.12 µM; in assay [4], 1.7 µM; in [5], 0.394 µM. Also, the TGI in [1] was determined as 2.99 µM; in assay [2] it was 3.34 µM; in assay [3], 2.72 µM; in assay [4], 3.51 µM; in assay [5], 1.54 µM.
On to `NC(=O)OCc1c(O)c2c(c(O)c1COC(N)=O)C(=O)C=CC2=O`, for which the TGI in assay [6], in assay [7], in assay [1], in assay [8], in [9] and in assay [2] was more than 100 µM throughout. The TGI in [3], in assay [4] and in assay [5] was more than 100 µM in each case.
As for `COc1ccc(C2C(Cl)C(=O)N2NC(=O)c2ccc(NC(C)=O)cc2)cc1OC` (stereo not drawn), the concentration for total growth inhibition (TGI) in assay [6], in assay [7], in assay [1], in [8], in [9] and in assay [2] was more than 100 µM throughout. In addition, the total growth inhibition concentration (TGI) in assay [3], in assay [4], in assay [10] and in assay [5] was more than 100 µM in each case.
For the compound `N=C(N)c1ccc(-c2ccc(-c3ccccc3)o2)cc1`, the GI50 in [7] was 1.98 µM; in [1], 1.67 µM; in assay [9], 1.65 µM; in assay [2] it was 2.89 µM; in assay [3], 1.89 µM; in assay [4] it was 2.21 µM. Further, the GI50 in [10] is 2.54 µM; in [5] it was 1.72 µM. Besides, the concentration for total growth inhibition (TGI) in assay [7] was determined as 5.13 µM; in [1], 3.35 µM; in [9] it was 3.38 µM; in [2] it was 10.2 µM; in assay [3] it was 3.73 µM; in [4] it was 4.56 µM. The values for the total growth inhibition concentration (TGI) in assay [10] and in [5] were 6.83 µM and 3.32 µM, respectively.
On to `O=C(Nc1ccc(-n2cc(-c3ccncc3)c(-c3ccc(O)c(Cl)c3)n2)cc1)c1ccc(Cl)c(Cl)c1`, for which the GI50 was 0.801 µM in assay [6]; 2 µM in [7]; more than 32.5 µM in assay [1]; 0.693 µM in assay [8]; 0.656 µM in assay [9]; 1.52 µM in [3]. Besides, the GI50 was more than 32.5 µM in assay [4], 2.67 µM in [10] and 2.08 µM in assay [5]. Besides, the TGI was more than 32.5 µM in assay [6]; more than 32.5 µM in assay [7]; more than 32.5 µM in assay [1]; more than 32.5 µM in [8]; 2.25 µM in assay [9]; more than 32.5 µM in assay [3]. Also, the TGI in [4], in [10] and in assay [5] was more than 32.5 µM in each case.
